# pIC50: −log10 of the molar value.
# Tests used:
# RON (human) = RON (human) (Homo sapiens, UniProt Q04912); experiment: RON (human) AlphaScreen kinase assay, Km of ATP; assay type: biochemical; conditions: AlphaScreen, Km of ATP; read-out: RON biochemical IC50
# In short: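 Detection used PT66 AlphaScreen beads added in Tris pH 7.5/NaCl/EDTA/BSA buffer, read after 1 h incubation. Vehicle-only DMSO wells served as controls.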
# MET (human) = MET (human) (Homo sapiens, UniProt P08581); experiment: MET (human) AlphaScreen kinase assay, Km of ATP; assay type: biochemical; conditions: AlphaScreen, Km of ATP; read-out: Met biochemical IC50
# MET (human), sequence (P08581 25-1390): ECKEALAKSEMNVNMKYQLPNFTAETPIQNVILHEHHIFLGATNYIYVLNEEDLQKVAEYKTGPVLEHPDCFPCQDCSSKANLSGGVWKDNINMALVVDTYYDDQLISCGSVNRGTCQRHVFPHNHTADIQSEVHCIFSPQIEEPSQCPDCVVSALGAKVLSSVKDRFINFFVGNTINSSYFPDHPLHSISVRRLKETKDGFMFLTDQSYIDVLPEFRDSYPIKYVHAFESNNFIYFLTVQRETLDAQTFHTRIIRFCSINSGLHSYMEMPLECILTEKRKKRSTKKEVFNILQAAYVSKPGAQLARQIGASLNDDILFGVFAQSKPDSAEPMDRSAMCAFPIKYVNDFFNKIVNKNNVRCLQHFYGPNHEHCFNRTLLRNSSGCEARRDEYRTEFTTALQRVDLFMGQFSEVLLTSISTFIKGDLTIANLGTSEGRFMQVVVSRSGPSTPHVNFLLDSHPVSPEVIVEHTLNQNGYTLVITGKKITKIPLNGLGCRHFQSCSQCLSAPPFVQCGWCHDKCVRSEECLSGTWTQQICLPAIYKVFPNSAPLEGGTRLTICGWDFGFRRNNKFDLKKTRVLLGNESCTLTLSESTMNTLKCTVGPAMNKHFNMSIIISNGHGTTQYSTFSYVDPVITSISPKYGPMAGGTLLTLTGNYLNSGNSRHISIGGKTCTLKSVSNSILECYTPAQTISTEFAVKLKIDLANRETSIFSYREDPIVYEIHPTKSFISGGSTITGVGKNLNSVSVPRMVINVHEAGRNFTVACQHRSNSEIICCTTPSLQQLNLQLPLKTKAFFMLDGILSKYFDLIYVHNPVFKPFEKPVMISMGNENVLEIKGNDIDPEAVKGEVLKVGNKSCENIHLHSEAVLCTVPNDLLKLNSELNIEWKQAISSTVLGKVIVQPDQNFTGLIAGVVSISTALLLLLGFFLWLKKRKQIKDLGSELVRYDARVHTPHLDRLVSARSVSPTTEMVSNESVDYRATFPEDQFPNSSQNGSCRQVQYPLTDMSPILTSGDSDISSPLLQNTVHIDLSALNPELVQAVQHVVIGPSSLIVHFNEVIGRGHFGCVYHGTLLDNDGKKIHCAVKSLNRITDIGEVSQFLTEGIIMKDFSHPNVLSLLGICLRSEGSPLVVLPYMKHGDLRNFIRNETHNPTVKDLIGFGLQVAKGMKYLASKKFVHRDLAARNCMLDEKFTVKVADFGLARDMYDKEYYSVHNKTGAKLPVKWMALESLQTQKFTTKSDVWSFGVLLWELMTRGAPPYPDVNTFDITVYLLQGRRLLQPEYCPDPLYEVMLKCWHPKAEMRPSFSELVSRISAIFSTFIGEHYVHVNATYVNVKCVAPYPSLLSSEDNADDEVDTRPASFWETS
# In short: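 Human MET at lot-optimised concentration in 50 mM Tris pH 7.4 buffer with 1 mM DTT, compound at 1% DMSO final; enzyme starts the reaction, 60 min at RT.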
# RON (human), sequence (Q04912 25-1400): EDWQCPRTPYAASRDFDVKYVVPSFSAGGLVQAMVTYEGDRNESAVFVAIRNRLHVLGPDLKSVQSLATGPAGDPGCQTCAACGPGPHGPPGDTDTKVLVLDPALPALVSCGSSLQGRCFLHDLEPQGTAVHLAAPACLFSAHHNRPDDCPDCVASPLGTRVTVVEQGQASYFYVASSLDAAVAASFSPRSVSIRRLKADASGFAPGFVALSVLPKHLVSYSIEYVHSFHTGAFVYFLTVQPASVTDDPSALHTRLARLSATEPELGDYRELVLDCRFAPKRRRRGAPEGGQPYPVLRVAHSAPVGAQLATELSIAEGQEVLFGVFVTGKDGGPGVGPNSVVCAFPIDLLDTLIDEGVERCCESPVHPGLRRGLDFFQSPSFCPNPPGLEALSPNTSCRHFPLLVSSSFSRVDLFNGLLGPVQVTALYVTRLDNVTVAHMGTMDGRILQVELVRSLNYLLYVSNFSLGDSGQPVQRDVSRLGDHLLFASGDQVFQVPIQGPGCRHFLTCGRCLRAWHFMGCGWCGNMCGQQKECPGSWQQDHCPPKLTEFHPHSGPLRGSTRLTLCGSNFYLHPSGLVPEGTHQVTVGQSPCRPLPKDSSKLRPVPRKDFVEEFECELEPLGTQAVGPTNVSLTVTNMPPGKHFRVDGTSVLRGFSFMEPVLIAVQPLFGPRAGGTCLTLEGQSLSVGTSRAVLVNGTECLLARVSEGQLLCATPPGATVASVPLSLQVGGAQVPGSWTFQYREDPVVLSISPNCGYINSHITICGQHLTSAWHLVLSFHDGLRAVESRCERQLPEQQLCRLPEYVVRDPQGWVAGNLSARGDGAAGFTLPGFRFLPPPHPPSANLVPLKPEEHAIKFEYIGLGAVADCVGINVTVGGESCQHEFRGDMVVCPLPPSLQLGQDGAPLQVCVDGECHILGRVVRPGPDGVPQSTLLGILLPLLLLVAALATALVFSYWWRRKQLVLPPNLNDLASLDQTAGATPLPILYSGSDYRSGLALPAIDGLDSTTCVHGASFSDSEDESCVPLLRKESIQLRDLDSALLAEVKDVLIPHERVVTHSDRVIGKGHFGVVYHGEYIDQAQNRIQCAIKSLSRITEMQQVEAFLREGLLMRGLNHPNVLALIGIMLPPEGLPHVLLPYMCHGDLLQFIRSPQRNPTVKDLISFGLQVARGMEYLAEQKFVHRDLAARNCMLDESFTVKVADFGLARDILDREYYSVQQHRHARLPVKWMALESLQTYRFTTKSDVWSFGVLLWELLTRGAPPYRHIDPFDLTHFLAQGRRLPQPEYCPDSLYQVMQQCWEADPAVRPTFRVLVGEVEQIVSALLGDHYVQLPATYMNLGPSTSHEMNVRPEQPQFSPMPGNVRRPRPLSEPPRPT
pIC50 (RON (human)),pIC50 (MET (human)),Compound
5.30 to 6.30,5.30 to 6.30,"CCCS(=O)(=O)Nc1cccc(-c2coc3c(O[C@H](C)c4c(Cl)ccc(F)c4Cl)c(N)ncc23)c1 [Example 244, Propane-1-sulfonic acid (3-{6-amino-7-[(R)-1-(2,6-dichloro-3-fluorophenyl)ethoxy]-furo[3,2-c]pyridin-3-yl}phenyl)amide]"
5.30 to 6.30,5.30 to 6.30,"CC(Oc1c(N)ncc2c(-c3cnn(C4CCNCC4)c3)coc12)c1cccc(-c2cnn(C)c2)c1 (centres unmarked) [Example 448, 7-{1-[3-(1-Methyl-1H-pyrazol-4-yl)phenyl]ethoxy}-3-(1-piperidin-4-yl-1H-pyrazol-4-yl)furo[3,2-c]pyridin-6-ylamine]"
> 6.30,> 6.30,"Cc1ccc(-c2coc3c(O[C@H](C)c4c(Cl)ccc(F)c4Cl)c(N)ncc23)s1 [Example 95, 7-[(R)-1-(2,6-Dichloro-3-fluorophenyl)ethoxy]-3-(5-methylthiophen-2-yl)furo[3,2-c]pyridin-6-ylamine]"
> 6.30,> 6.30,"C[C@@H](Oc1c(N)ncc2c(C3=CCN(C(=O)[C@H]4CCCNC4)CC3)coc12)c1c(Cl)ccc(F)c1Cl [Example 240, (4-{6-Amino-7-[(R)-1-(2,6-dichloro-3-fluorophenyl)ethoxy]-furo[3,2-c]pyridin-3-yl}-3,6-dihydro-2H-pyridin-1-yl)-(S)-piperidin-3-ylmethanone]"
